From US11879145B2, “Reagents and methods for replication, transcription, and translation in semi-synthetic organisms” (The Scripps Research Institute, priority 2019, dated 2024)

System: sfGFP^151(AXC)
Test: In vivo translation screen of XTPs/YTPs: protein shift (AzK incorporation) by DBCO-TAMRA western blot
Assay type: cell-based, E. coli
Settings: TPT3TP 30 μM, dCNMO-dTPT3 UBP, strain ML2
Description: In vivo Translation Screen of XTPs/YTPs. An overnight culture of the SSO strain ML2 carrying the pGEX-MbPylRS TetR plasmid was grown in 2×YT supplemented with 50 mM potassium phosphate, […] chloramphenicol and 100 μg/mL carbenicillin (herein referred to in this section as “media”), then diluted back to an OD600 of 0.03 in the same media and grown to an OD600 of 0.4 to 0.6. The culture was then chilled with shaking over ice-water for 15 minutes then pelleted by centrifugation at 3,200×g for 10 min. Cells were then resuspended and washed with ice-cold ddH2O twice then resuspended in ice-cold ddH2O to OD600 of 55-65. The electrocompetent cells (50 μL) and 1 ng of Golden Gate assembled plasmid with the UBP within the sfGFP and tRNAPyl genes (see Golden Gate Assembly of Plasmids) were transferred to a pre-chilled electroporation cuvette (0.2-cm-gap), then electroporated (Gene Pulser II; Bio-Rad) according to manufacturer's recommendations (voltage […], capacitor 2.5 μF, resistor 200Ω), and then immediately diluted with 950 μL of media. An aliquot (40 μL) of the transformation was then diluted five-fold in media supplemented with dCNMOTP (25 μM) and dTPT3TP (10 μM) for a final volume of 200 μL then allowed to recover for 1 h shaking at 37° C. Two-fold dilutions of the recovery were plated onto solid media supplemented with zeocin (50 μg/mL), dCNMOTP (10 μM), dTPT3TP (10 μM), and agar (2% w/v), then grown at 37° C. for 18 h. Single colonies were picked and grown in media (300 μL) supplemented with 50 μg/mL zeocin and provided dCNMOTP (25 μM) and dTPT3TP (10 μM) (herein afterward referred to in this section as “growth media”). The culture was monitored for cell growth (Envision 2103 Multilabel Plate Reader with a 590/20 nm filter) and then collected at an OD600˜1.0. An aliquot (50 μL) was subjected to plasmid isolation using the ZR Plasmid Prep Kit (Zymo Research). Isolated plasmids were then subjected to the streptavidin gel shift assay described below (using primers P3-4 and P5-6, Table S1) to determine UBP retention.
A colony with excellent UBP retention was then diluted to an OD600˜0.01 in growth media and grown to OD600˜0.4-0.6. This culture was then divided into multiple 300 μL cultures and for the screen of XTP analogs, each was provided with the corresponding XTP (at either 25 μM or 250 μM) or ddH2O for “−XTP” samples, TPT3TP (30 μM), and AzK (10 mM). For the screen of YTP analogs, each 300 μL culture was provided with the corresponding YTP (at either 25 μM or 250 μM) or ddH2O for “−YTP” samples, NaMTP (250 μM), and AzK (10 mM). Samples were shielded from light after addition of AzK to prevent photodegradation. These samples were then grown at 37° C. for 20 min before adding 1 mM IPTG and grown at 37° C. for an additional 1 h to induce T7 RNAP and transcription of tRNAPyl and PylRS. From this point on, cells were monitored for growth and fluorescence. Expression of sfGFP was then induced with anhydrotetracycline (100 ng/mL). After an additional 3 h of growth at 37° C., cells were collected (230 μL for affinity purification of sfGFP), cooled, and then pelleted and stored at −80° C. before protein purification.
Affinity Purification of sfGFP. Cell pellets collected from translation experiments were resuspended in BugBuster (100 μL 1×, EMD Millipore) and shaken at room temperature for 15 min. […]

COc1cc(C)c(F)cc1[C@@H]1O[C@H](COP(=O)(O)OP(=O)(O)OP(=O)(O)O)[C@@H](O)[C@H]1O [Compound 5FMTP]
sfGFP protein gel shift (ncAA incorporation) (XTP 25 μM): 94% | sfGFP protein gel shift (ncAA incorporation) (XTP 250 μM): 98%
